Where a name gives a salt, the structure may show the parent alone.
Experiments:
NLRP3 [1] = target: T1, NLRP3 (Homo sapiens, UniProt Q96P20); experiment: THP-1 cells pyroptosis assay; assay type: cell-based; parameters: Seed THP-1 cells (25,000 cells/well) containing 1.0 μg/ml LPS; host or cells: THP-1 cells, LPS-primed, nigericin-stimulated; conditions: THP-1 cells, 1.0 μg/ml LPS, compound 3 hrs, nigericin 5 μM 1 hr, resazurin readout; read-out: THP IC50
Procedure, shortened: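 THP-1 cells (25,000/well) in serum-free RPMI with 1.0 μg/ml LPS, treated with compound (8-point half-log dilution, 10 μM top, 0.1% DMSO), then nigericin 5 μM final. Viability read by resazurin (100 μM final, 1-2 h, 37° C) fluorescence Ex 560/Em 590 nm; IC50 from 4-parameter variable-slope fit.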

NLRP3 [2] = target: T1, NLRP3; experiment: Human whole blood IL1β release assay; assay type: cell-based; parameters: Human whole blood in Li-heparin tubes was obtained from healthy donors; from tissue; host or cells: human whole blood from healthy donors, LPS-primed, nigericin-stimulated; conditions: human whole blood, 1 μg/ml LPS, compound 3 hrs, nigericin 10 μM 1 hr, IL-1β AlphaLisa; read-out: HWB IC50
Method: Human Whole Blood IL1β Release Assay
For systemic delivery, the ability to inhibit NLRP3 when the compounds are present within the bloodstream is of great importance. For this reason, the NLRP3 inhibitory activity of a number of compounds in human whole blood was investigated in accordance with the following protocol.
Human whole blood in Li-heparin tubes was obtained from healthy donors from a volunteer donor panel. • 1. Plate out 80 μl of whole blood containing 1 μg/ml of LPS in 96-well, clear bottom cell culture plate (Corning #3585) • 2. Add 10 μl compound (8 points half-log dilution with 10 μM top dose) or vehicle (DMSO 0.1% FAC) to the appropriate wells • 3. Incubate for 3 hrs at 37° C., 5% CO2 • 4. Add 10 μl Nigericin (Sigma #N7143) (10 μM FAC) to all wells • 5. Incubate for 1 hr at 37° C., 5% CO2 • 6. At the end of the incubation period, spin plates at 300 xg for 5 mins to pellet cells and remove 20 μl of supernatant and add to 96-well v-bottom plates for IL-1β analysis (note: these plates containing the supernatants can be stored at −80° C. to be analysed at a later date) • 7. IL-1β was measured according to the manufacturer protocol (Perkin Elmer-AlphaLisa IL-1 Kit AL220F-5000) • 8. IC50 data is fitted to a non-linear regression equation (log inhibitor vs response-variable slope 4-parameters)

T1 sequence (Q96P20 whole entry): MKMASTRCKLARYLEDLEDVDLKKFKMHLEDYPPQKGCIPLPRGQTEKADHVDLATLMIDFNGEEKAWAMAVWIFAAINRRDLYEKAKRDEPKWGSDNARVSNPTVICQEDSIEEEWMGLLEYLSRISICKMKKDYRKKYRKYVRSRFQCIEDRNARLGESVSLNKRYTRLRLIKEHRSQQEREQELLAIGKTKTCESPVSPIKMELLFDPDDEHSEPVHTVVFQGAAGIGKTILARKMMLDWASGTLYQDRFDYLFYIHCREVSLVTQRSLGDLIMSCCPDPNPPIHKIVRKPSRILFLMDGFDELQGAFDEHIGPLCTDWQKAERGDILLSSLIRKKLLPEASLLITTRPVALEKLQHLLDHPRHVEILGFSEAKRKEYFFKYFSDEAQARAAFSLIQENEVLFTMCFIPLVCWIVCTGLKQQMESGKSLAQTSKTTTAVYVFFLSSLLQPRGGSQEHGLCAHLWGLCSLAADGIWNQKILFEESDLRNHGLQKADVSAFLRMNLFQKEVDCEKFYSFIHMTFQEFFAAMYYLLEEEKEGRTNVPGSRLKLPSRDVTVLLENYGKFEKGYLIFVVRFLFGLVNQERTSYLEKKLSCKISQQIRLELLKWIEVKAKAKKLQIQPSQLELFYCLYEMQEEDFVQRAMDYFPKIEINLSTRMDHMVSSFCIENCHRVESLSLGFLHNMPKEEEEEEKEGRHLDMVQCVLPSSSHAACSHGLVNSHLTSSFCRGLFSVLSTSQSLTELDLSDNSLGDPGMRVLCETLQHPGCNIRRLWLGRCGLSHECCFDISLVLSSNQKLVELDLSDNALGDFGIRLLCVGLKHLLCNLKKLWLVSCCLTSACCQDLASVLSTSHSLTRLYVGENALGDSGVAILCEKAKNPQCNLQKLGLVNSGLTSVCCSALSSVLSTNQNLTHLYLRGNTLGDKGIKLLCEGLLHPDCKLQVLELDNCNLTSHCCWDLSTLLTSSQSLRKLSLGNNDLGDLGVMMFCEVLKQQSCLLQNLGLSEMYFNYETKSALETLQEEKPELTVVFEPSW

Row | Compound | IC50 (NLRP3 [1]) [nM] | IC50 (NLRP3 [2]) [nM]
1 | COc1cc(-c2ccc3c(c2NC(=O)NS(=O)(=O)c2ccn(CCN(C)C)n2)CCC3)ccn1 [Example 26, 1-(2-(Dimethylamino)ethyl)-N-((5-(2-methoxypyridin-4-yl)-2,3-dihydro-1H-inden-4-yl)carbamoyl)-1H-pyrazole-3-sulfonamide] | < 160 | < 400
2 | CC(C)c1cc(F)cc(-c2cccnc2)c1NC(=O)NS(=O)(=O)c1ccn(CCN(C)C)n1 [Example 30, 1-(2-(Dimethylamino)ethyl)-N-((4-fluoro-2-isopropyl-6-(pyridin-3-yl)phenyl)carbamoyl)-1H-pyrazole-3-sulfonamide] | < 640 | < 800
3 | CC(C)(C#N)n1ccc(S(=O)(=O)NC(=O)Nc2c3c(cc4c2CCC4)CCC3)n1 [Example 33, 1-(2-Cyanopropan-2-yl)-N-((1,2,3,5,6,7-hexahydro-s-indacen-4-yl)carbamoyl)-1H-pyrazole-3-sulfonamide] | < 160 | < 1600
4 | N#CCn1ccc(S(=O)(=O)NC(=O)Nc2c3c(cc4c2CCC4)CCC3)n1 [Example 34, 1-(Cyanomethyl)-N-((1,2,3,5,6,7-hexahydro-s-indacen-4-yl)carbamoyl)-1H-pyrazole-3-sulfonamide] | < 640 | < 3200
5 | O=C(Nc1c2c(cc3c1CCC3)CCC2)NS(=O)(=O)c1ccn(Cc2ncco2)n1 [Example 35, N-((1,2,3,5,6,7-Hexahydro-s-indacen-4-yl)carbamoyl)-1-(oxazol-2-ylmethyl)-1H-pyrazole-3-sulfonamide] | < 160 | < 10000
6 | Cn1ccnc1Cn1ccc(S(=O)(=O)NC(=O)Nc2c3c(cc4c2CCC4)CCC3)n1 [Example 118, N-((1,2,3,5,6,7-Hexahydro-s-indacen-4-yl)carbamoyl)-1-((1-methyl-1H-imidazol-2-yl)methyl)-1H-pyrazole-3-sulfonamide] | < 40 | < 800
7 | CN(C)C1(c2cc(S(=O)(=O)NC(=O)Nc3c4c(cc5c3CCC5)CCC4)nn2C)COC1 [Example 122, 5-(3-(Dimethylamino)oxetan-3-yl)-N-((1,2,3,5,6,7-hexahydro-s-indacen-4-yl)carbamoyl)-1-methyl-1H-pyrazole-3-sulfonamide] | < 640 | < 1600
8 | COCCN(C)Cc1cc(S(=O)(=O)NC(=O)Nc2c3c(cc4c2CCC4)CCC3)nn1C [Example 126, N-((1,2,3,5,6,7-Hexahydro-s-indacen-4-yl)carbamoyl)-5-(((2-methoxyethyl)(methyl)amino)methyl)-1-methyl-1H-pyrazole-3-sulfonamide, sodium salt] | < 640 | < 3200
9 | CC(=O)N(C)Cc1cc(S(=O)(=O)NC(=O)Nc2c3c(cc4c2CCC4)CCC3)nn1C(C)C [Example 129, N-((3-(N-((1,2,3,5,6,7-Hexahydro-s-indacen-4-yl)carbamoyl)sulfamoyl)-1-isopropyl-1H-pyrazol-5-yl)methyl)-N-methylacetamide] | < 160 | < 800
10 | CNC(=O)c1cc(S(=O)(=O)NC(=O)Nc2c(C(C)C)cc(Cl)cc2C(C)C)nn1C [Example 132, 3-(N-((4-chloro-2,6-diisopropylphenyl)carbamoyl)sulfamoyl)-N,1-dimethyl-1H-pyrazole-5-carboxamide] | < 640 | < 3200
11 | CC(C)c1cccc(C(C)C)c1NC(=O)NS(=O)(=O)c1cc(C(=O)N2CC(F)C2)n(C)n1 [Example 139, N-((2,6-Diisopropylphenyl)carbamoyl)-5-(3-fluoroazetidine-1-carbonyl)-1-methyl-1H-pyrazole-3-sulfonamide, sodium salt] | < 2560 | < 1600
12 | CC(C)c1ccc(C(C)C)c(NC(=O)NS(=O)(=O)c2cc(C(=O)N(C)C)n(C)n2)c1 [Example 144, 3-(N-((2,5-Diisopropylphenyl)carbamoyl)sulfamoyl)-N,N,1-trimethyl-1H-pyrazole-5-carboxamide, sodium salt] | < 640 | < 10000
13 | CC(C)c1cc(F)cc(C(C)C)c1NC(=O)NS(=O)(=O)c1cc(C(=O)N(C)C(C)C)n(C)n1 [Example 147, 3-(N-((4-Fluoro-2,6-diisopropylphenyl)carbamoyl)sulfamoyl)-N-isopropyl-N,1-dimethyl-1H-pyrazole-5-carboxamide] | < 160 | < 800
14 | CN(C(=O)c1cc(S(=O)(=O)NC(=O)Nc2c3c(cc4c2CCC4)CCC3)nn1C)C1CC1 [Example 152, N-Cyclopropyl-3-(N-((1,2,3,5,6,7-hexahydro-s-indacen-4-yl)carbamoyl)sulfamoyl)-N,1-dimethyl-1H-pyrazole-5-carboxamide] | < 160 | < 800
15 | CNC(=O)c1cc(S(=O)(=O)NC(=O)Nc2c(C(C)C)cccc2C(C)C)nn1C [Example 155, 3-(N-((2,6-Diisopropylphenyl)carbamoyl)sulfamoyl)-N,1-dimethyl-1H-pyrazole-5-carboxamide] | < 640 | < 800

More lines, now with the values ahead:

Row | IC50 (NLRP3 [1]) [nM] | IC50 (NLRP3 [2]) [nM] | Compound
16 | < 640 | < 3200 | CN(C)CCn1cc(S(=O)(=O)NC(=O)Nc2c3c(cc4c2CCC4)CCC3)nn1 [Example 25, 1-(2-(Dimethylamino)ethyl)-N-((1,2,3,5,6,7-hexahydro-s-indacen-4-yl)carbamoyl)-1H-1,2,3-triazole-4-sulfonamide, sodium salt]
17 | < 640 | < 800 | CN(C)CCn1cnc(S(=O)(=O)NC(=O)Nc2c3c(cc4c2CCC4)CCC3)n1 [Example 27, 1-(2-(Dimethylamino)ethyl)-N-((1,2,3,5,6,7-hexahydro-s-indacen-4-yl)carbamoyl)-1H-1,2,4-triazole-3-sulfonamide]
18 | < 640 | < 3200 | CN(C)CCn1ccc(S(=O)(=O)NC(=O)Nc2c(-c3cccnc3)cc(F)c3c2CCC3)n1 [Example 28, 1-(2-(Dimethylamino)ethyl)-N-((7-fluoro-5-(pyridin-3-yl)-2,3-dihydro-1H-inden-4-yl)carbamoyl)-1H-pyrazole-3-sulfonamide]
19 | < 40 | < 400 | COc1cc(-c2cc(F)c3c(c2NC(=O)NS(=O)(=O)c2ccn(CCN(C)C)n2)CCC3)ccn1 [Example 29, 1-(2-(Dimethylamino)ethyl)-N-((7-fluoro-5-(2-methoxypyridin-4-yl)-2,3-dihydro-1H-inden-4-yl)carbamoyl)-1H-pyrazole-3-sulfonamide]
20 | < 160 | < 1600 | CC(C)c1cccc(C(C)C)c1NC(=O)NS(=O)(=O)c1cc(C(=O)N(C)C2CC2)n(C)n1 [Example 143, N-Cyclopropyl-3-(N-((2,6-diisopropylphenyl)carbamoyl)sulfamoyl)-N,1-dimethyl-1H-pyrazole-5-carboxamide]
21 | < 640 | < 800 | CCN(C)C(=O)c1cc(S(=O)(=O)NC(=O)Nc2c(C(C)C)cc(F)cc2C(C)C)nn1C [Example 149, N-Ethyl-3-(N-((4-fluoro-2,6-diisopropylphenyl)carbamoyl)sulfamoyl)-N,1-dimethyl-1H-pyrazole-5-carboxamide, sodium salt]
22 | < 640 | < 400 | CNC(=O)c1cc(S(=O)(=O)NC(=O)Nc2c(C(C)C)cc(F)cc2C(C)C)nn1C [Example 150, 3-(N-((4-Fluoro-2,6-diisopropylphenyl)carbamoyl)sulfamoyl)-N,1-dimethyl-1H-pyrazole-5-carboxamide]
23 | < 640 | < 400 | CC(C)c1cccc(C(C)C)c1NC(=O)NS(=O)(=O)c1cc(C(=O)N2CCC2)n(C)n1 [Example 151, 5-(Azetidine-1-carbonyl)-N-((2,6-diisopropylphenyl)carbamoyl)-1-methyl-1H-pyrazole-3-sulfonamide]
24 | < 640 | < 1600 | CN(CC#N)C(=O)c1cc(S(=O)(=O)NC(=O)Nc2c3c(cc4c2CCC4)CCC3)nn1C [Example 153, N-(Cyanomethyl)-3-(N-((1,2,3,5,6,7-hexahydro-s-indacen-4-yl)carbamoyl)sulfamoyl)-N,1-dimethyl-1H-pyrazole-5-carboxamide, partial ammonium salt]
25 | < 160 | < 3200 | Cn1nc(S(=O)(=O)NC(=O)Nc2c3c(cc4c2CCC4)CCC3)cc1C(=O)N1CCC1 [Example 154, 5-(Azetidine-1-carbonyl)-N-((1,2,3,5,6,7-hexahydro-s-indacen-4-yl)carbamoyl)-1-methyl-1H-pyrazole-3-sulfonamide]

From US11613542B2, “Sulfonylureas and sulfonylthioureas as NLRP3 inhibitors” (Inflazome Limited, priority 2017, dated 2023)
